Measurements reported in patent US20210347709A1, “RADIOFLUORINATED GPC3-BINDING PEPTIDES FOR PET IMAGING OF HEPATOCELLULAR CARCINOMA” (University of Southern California, priority 2020, published 2021).
Where two headings read alike, the source gives them in different places.

How the values were obtained:
[1] = MicroPET/CT imaging and biodistribution, HepG2 tumor model; type: in vivo, nude mice; settings: both sexes, BALB/c nude, mouse, iv, 5.55 MBq, total radioactivity; for tissue to tissue ratio at 1 h / tissue to tissue ratio at 0.5 h / tissue to tissue ratio at 2 h: HepG2 (GPC3+) tumor bearing mice; for tissue to tissue ratio at 1 h / tissue uptake at 1 h: 60 min; for tissue to tissue ratio at 0.5 h / tissue uptake at 0.5 h: 30 min; for tissue to tissue ratio at 2 h / tissue uptake at 2 h: 120 min; for tissue uptake at 0.5 h / tissue uptake at 1 h / tissue uptake at 2 h: HepG2 (GPC3+) tumor model, PET
Protocol: MicroPET/CT Imaging and Biodistribution. MicroPET/CT scans were carried out using a Siemens Inveon PET/CT scanner (Siemens, Germany). Tumor-bearing mice (n=3/group) were intravenously injected with 5.55 MBq of Al[^18F]F-GP2076 or Al[^18F]F-GP2633 under isoflurane anesthesia. A ten-minute static PET scan for each animal was acquired at 30, 60, and 120 min after the injection. 3-Dimensional ordered subset expectation maximization (3D-OSEM) algorithm was used for the PET reconstruction, and CT was applied for attenuation correction. Detailed procedures for the microPET/CT imaging and biodistribution are provided in ESM.
All animal experiments were conducted according to the guideline of the Nanfang Hospital Animal Ethics Committee at the Southern Medical University. Male or female BALB/c nude mice (about 4-6 weeks old) were obtained from the Laboratory Animal Center at Southern Medical University. The HepG2 and McA-RH7777 HCC xenografts were established by subcutaneous injection of 1×10^6 tumor cells into the left shoulder of nude mice. The animals were used for in vivo studies when the tumors reached a size of 0.5-1 cm in diameter (4-6 weeks after inoculation).
Inveon Research Workplace (IRW) 3.0 software (Siemens, Germany) was used to measure the regions of interest (ROIs) determined by superimposing the ellipsoid volume of interest (VOI) on the target tissues. The radioactivity concentrations were measured by the mean pixel intensity within each VOI and converted to dose/ml using a calibration constant. Assuming the tissue density of 1 g/ml, the ROI was then converted to dose per gram and normalized as the percent injected dose per gram (% ID/g). Tumor-to-nontarget uptake ratios, including tumor-to-muscle (T/M), tumor-to-liver (T/L), and tumor-to-kidneys (T/K) ratios, were calculated by dividing the radioactivity uptake in tumor by that in the corresponding normal tissue or organ.

[2] = In vitro stability in PBS and mouse serum; type: in vitro ADME; settings: PBS at room temperature and mouse serum at 37° C., 2 h incubation, HPLC
Protocol: In Vitro Stability. The stability of Al[^18F]F-GP2076 or Al[^18F]F-GP2633 was evaluated in PBS and mouse serum. Briefly, 5.55 MBq of Al[^18F]F-GP2076 or Al[^18F]F-GP2633 was incubated with 0.5 ml of PBS at room temperature or mouse serum at 37° C. with gentle shaking. The stability test was carried out at 2 h after the incubation. For the PBS study, an aliquot of the solution was taken, and the radiochemical purity was determined by analytical HPLC. For the mouse serum study, after the addition of TFA, the mixture was passed through a 0.2-μm filter. An aliquot of the soluble fraction was taken, and the radiochemical purity was examined by analytical HPLC.

[3] = HepG2 tumor / liver, read-out: Tumor-to-liver (T/L) uptake ratio
[4] = HepG2 tumor / muscle, read-out: Tumor-to-muscle (T/M) uptake ratio
[5] = intestine, read-out: Intestinal uptake
[6] = decay-corrected, read-out: Tumor uptake
[7] = kidneys, read-out: Kidneys uptake
[8] = muscle, read-out: Muscle uptake
[9] = tumor / kidneys, read-out: Tumor-to-kidneys (T/K) uptake ratio

tissue to tissue ratio at 1 h ([1]; HepG2 tumor / kidneys, read-out: Tumor-to-kidneys (T/K) uptake ratio): 0.31 ± 0.04 | tissue to tissue ratio at 0.5 h [1, 3]: 0.43 ± 0.06 | tissue to tissue ratio at 1 h [1, 3]: 0.59 ± 0.14 | tissue to tissue ratio at 2 h [1, 3]: 0.46 ± 0.4 | tissue to tissue ratio at 0.5 h [1, 4]: 5.56 ± 1.36 | tissue to tissue ratio at 1 h [1, 4]: 5.13 ± 2.08 | tissue to tissue ratio at 2 h [1, 4]: 2.68 ± 0.29 | tissue uptake at 0.5 h ([1]; bone, read-out: Bone uptake): 0.95 %ID/g | tissue uptake at 1 h ([1]; bone, read-out: Bone uptake): 0.35 %ID/g | tissue uptake at 2 h ([1]; bone, read-out: Bone uptake): 0.21 %ID/g | tissue uptake at 0.5 h ([1]; brain, read-out: Brain uptake): 0.63 %ID/g | tissue uptake at 1 h ([1]; brain, read-out: Brain uptake): 0.18 %ID/g | tissue uptake at 2 h ([1]; brain, read-out: Brain uptake): 0.13 %ID/g | tissue uptake at 0.5 h ([1]; heart, read-out: Heart uptake): 1.29 %ID/g | tissue uptake at 1 h ([1]; heart, read-out: Heart uptake): 1.05 %ID/g | tissue uptake at 2 h ([1]; heart, read-out: Heart uptake): 0.36 %ID/g | tissue uptake at 0.5 h [1, 5]: 3.03 %ID/g | tissue uptake at 1 h [1, 5]: 2.57 %ID/g | tissue uptake at 2 h [1, 5]: 1.8 %ID/g | tissue uptake at 0.5 h [1, 6]: 2.2 %ID/g | tissue uptake at 1 h [1, 6]: 2.13 %ID/g | tissue uptake at 2 h [1, 6]: 0.73 %ID/g | tissue uptake at 0.5 h [1, 7]: 9.83 %ID/g | tissue uptake at 1 h [1, 7]: 7.03 %ID/g | tissue uptake at 2 h [1, 7]: 2.27 %ID/g | tissue uptake at 0.5 h ([1]; liver, read-out: Liver uptake): 5.1 %ID/g | tissue uptake at 1 h ([1]; liver, read-out: Liver uptake): 3.7 %ID/g | tissue uptake at 2 h ([1]; liver, read-out: Liver uptake): 2.07 %ID/g | tissue uptake at 0.5 h ([1]; lung, read-out: Lung uptake): 1.57 %ID/g | tissue uptake at 1 h ([1]; lung, read-out: Lung uptake): 0.78 %ID/g | tissue uptake at 2 h ([1]; lung, read-out: Lung uptake): 0.43 %ID/g | tissue uptake at 0.5 h [1, 8]: 0.41 %ID/g | tissue uptake at 1 h [1, 8]: 0.44 %ID/g | tissue uptake at 2 h [1, 8]: 0.28 %ID/g | tissue to tissue ratio at 0.5 h [1, 9]: 0.25 ± 0.11 | tissue to tissue ratio at 2 h [1, 9]: 0.46 ± 0.46 | percentage of intact radiotracer (in vitro stability) [2]: > 95%
Structure (SMILES): CC(C)C[C@H](NC(=O)[C@H](CCCNC(=N)N)NC(=S)Nc1ccc(CC2CN(CC(=O)O)CCN(CC(=O)O)CCN2CC(=O)O)cc1)C(=O)N[C@@H](CC(N)=O)C(=O)N[C@H](C(=O)NCC(=O)NCC(=O)N[C@H](C(=O)N[C@@H](Cc1ccc(O)cc1)C(=O)N[C@@H](Cc1ccccc1)C(=O)N[C@@H](CC(C)C)C(=O)N[C@H](C(=O)N[C@H](C(=O)N[C@@H](CCCNC(=N)N)C(=O)N[C@@H](CCC(N)=O)C(=O)O)[C@@H](C)O)[C@@H](C)O)[C@@H](C)O)C(C)C (single isomer, unassigned) [Al[^18F]F-GP2076]
